Patent US10912816B2, “Obesity-related genes and their proteins and uses thereof” (THE TRUSTEES OF COLUMBIA UNIVERSITY IN THE CITY OF NEW YORK, priority 2010, dated 2021)
Entries after “also recorded” stand apart in the source; their conditions may differ.

Tests used:
[1] = Body weight and 24 hour feeding behavior in DIO rats (BioDaq Food Intake Monitoring System); type: in vivo; conditions: DIO rats on treatment
Protocol: Obese adult female Wistar rats (n=4/group) received single daily injections (sc) of vehicle or Spexin (35 μg/kg BW). Body weights and food intake were measured daily. Average daily food intake (FIG. 22A) and body weight (FIG. 22B) for each group was recorded for each 24 hr period. 24 hr food intake was reduced in the Spexin treated animals (dark circles) by Day 3. […] This effect persisted well beyond the immediate treatment period, and was apparent out to Day 7.
A more detailed analysis of hourly feeding behaviors, including 1) number of “meals” during a 24 hr light/dark cycle, and 2) meal duration and incidence were continuously recorded by a BioDaq Food Intake Monitoring System (FIG. 23). Pre-treatment baselines (FIG. 23A), on-treatment responses (FIG. 23B), early (FIG. 23C) and late (FIG. 23D) “wash-out” periods are presented. […]
Obese (DIO) adult female Wistar rats (n=4/group) received single daily injections (sc) of vehicle or Spexin (35 μg/kg BW). Individual body weights and food intake were measured and recorded daily, and the average food intake and body weight for each group was recorded for each 24 hour period. For a more detailed analysis of hourly feeding behaviors, number of feeding events or “meals” during a 24 hour light/dark cycle, and frequency and durations of individual meals were continuously recorded via a BioDaq Food Intake Monitoring System (New Brunswick, N.J.).

[2] = Conditioned taste aversion testing; type: in vivo, adult female Wistar rats; conditions: ip injection on test days 1-3; spexin 70 μg/kg, LiCl 63.5 mg/kg body weight (FIG. 29)
Protocol: After 20 hrs of water deprivation, rats were offered a single bottle containing 0.1% sodium saccharin for 20 min, followed by an ip injection of physiological saline (n=6), 70 μg spexin/kg body weight (n=6), or 63.5 mg LiCl/kg body weight (0.15M LiCl) (n=5) after an additional 20 min. Injections were administered on test days 1-3, with no injection on the final test day. […] Data points represent mean±SEM.
Conditioned taste aversion studies were conducted using adult female Wistar rats according to established protocols [P27-P29]. For training, rats were water but not food deprived for 20 hrs (1800-1400 hrs the following day), then offered a single bottle of water ad libitum for 20 min. Training sessions took place on 2 days of each week, spaced at 3-4 day intervals, to allow recovery of normal food intake and body weight. A total of 7 training sessions were conducted, by which time all animals had learned to drink promptly when fluid was offered. Testing was initiated on the same schedule, with 0.1% sodium saccharin rather than water as the available liquid. On test days 1-3 groups of rats were injected ip with either physiological saline, spexin (70 μg/kg body weight), or LiCl (63.5 mg/kg body weight). All groups experienced their first saccharin exposure and injection on test day 1. […]

For CSCC[C@H](NC(=O)[C@H](C)NC(=O)[C@H](CCC(N)=O)NC(=O)[C@@H]1CCCN1C(=O)[C@@H](NC(=O)[C@H](Cc1c[nH]c2ccccc12)NC(=O)[C@@H](N)CC(N)=O)[C@@H](C)O)C(=O)N[C@@H](CC(C)C)C(=O)N[C@@H](Cc1ccc(O)cc1)C(=O)N[C@@H](CC(C)C)C(=O)N[C@@H](CCCCN)C(=O)NCC(=O)N[C@@H](C)C(=O)N[C@@H](CCC(N)=O)C(N)=O [Spexin, NWTPQAMLYLKGAQ-amide], which “toxicity, nausea or taste aversion behaviors” value [1] is on record?
Its value is “No indications of nausea or taste aversion behaviors; also recorded: No overt signs of Spexin-induced toxic effects”.

What about the “toxicity, nausea or taste aversion behaviors” value ([1]; listed as spexin) of the same compound?
The value was “did not exhibit overt toxicity or nausea”.

And the “total amount of 0.1% saccharin solution consumed vs saline” value [2]?
Its value is “No significant differences; also recorded: no signs of taste aversion were detected”.

Which “total amount of 0.1% saccharin solution consumed vs saline” value [2] does the source give for [Cl-].[Li+] [LiCl, reference compound] here?
The value was “significantly less”.
